Measurements published in patent US6153616A, “Triazoles as therapeutic agents for fungal infections” (Synphar Laboratories, Inc., priority 1998, dated 2000).
Values after ≈ are worked out from the molar mass of the structure shown. Like-named read-outs stand apart in the source and are kept apart here.

Experiments:
C. kefyr = test: In vitro antifungal activity (minimum inhibitory concentration), C. kefyr; format: cell-based; details: Kluyveromyces marxianus, 48 h at 37° C.
Protocol: (§1) The compounds of the present invention were evaluated in vitro for their antifungal activity and were assessed based on minimum inhibitory concentration of the test compound, i.e. the concentration of the test compound at which growth of particular organism fails to occur. […] The microorganisms used in this test include Candida albicans, C. tropicalis, C. kefyr, C. krusei, C. guilliermondii, C. glabrata, Cryptococcus neoformans, Aspergillus niger and A. fumigatus.

A. niger = test: In vitro antifungal activity (minimum inhibitory concentration), A. niger; format: cell-based; details: Aspergillus niger, 48 h at 37° C.
Protocol: as §1

C. tropicalis = test: In vitro antifungal activity (minimum inhibitory concentration), C. tropicalis; format: cell-based; details: Candida tropicalis, 48 h at 37° C.
Protocol: as §1

Cryptococcus neoformans = test: In vitro antifungal activity (minimum inhibitory concentration), Cryptococcus neoformans; format: cell-based; details: 48 h at 37° C.
Protocol: as §1

Candida albicans = test: In vitro antifungal activity (minimum inhibitory concentration), Candida albicans; format: cell-based; details: 48 h at 37° C.
Protocol: as §1

C. glabrata = test: In vitro antifungal activity (minimum inhibitory concentration), C. glabrata; format: cell-based; details: Nakaseomyces glabratus, 48 h at 37° C.
Protocol: as §1

C. krusei = test: In vitro antifungal activity (minimum inhibitory concentration), C. krusei; format: cell-based; details: Pichia kudriavzevii, 48 h at 37° C.
Protocol: as §1

Aspergillus fumigatus = test: In vitro antifungal activity (minimum inhibitory concentration), Aspergillus fumigatus; format: cell-based; details: 48 h at 37° C.
Protocol: as §1

filamentous fungi = details: background; cited from earlier work
Saccheromyces cerevisiae = test: In vitro antifungal activity (minimum inhibitory concentration), Saccheromyces cerevisiae; format: cell-based
C. guilliermondii = test: In vitro antifungal activity (minimum inhibitory concentration), C. guilliermondii; format: cell-based; details: Meyerozyma guilliermondii, 48 h at 37° C.
Protocol: as §1

A. fumigatus = test: In vivo therapeutic efficacy, A. fumigatus systemic infection in mice; details: Aspergillus fumigatus, oral, i.v. and s.c. routes, survival vs control, read-out: Therapeutic efficacy (ED50) in mice systemic infections
Protocol: (§2) Certain selected compounds were evaluated in-vivo for their antifungal efficacy. Series of doses of test compounds were administered by oral, i.v and s.c. routes to infected mice, i.e mice that are inoculated with a strain of Candida albicans or Aspergillus fumigatus. Efficacy of test compound was determined based on survival of treated mice compared to control. The in vivo efficacy was assessed based on ED50 of the test compound. The following table provides ED50 of certain compounds for systemic infections of C. albicans and A. fumigatus in mice models.

C. albicans = test: In vivo therapeutic efficacy, C. albicans systemic infection in mice; details: Candida albicans, oral, i.v. and s.c. routes, survival vs control, read-out: Therapeutic efficacy (ED50) in mice systemic infections
Protocol: as §2

[1] = background; cited from earlier work
[2] = background; cited from earlier work; remark: listed apart in the source
[3] = Saccheromyces cerevisiae, 48 h at 37° C., read-out: MIC

| SMILES | MIC (C. kefyr) | MIC (A. niger) | MIC (C. tropicalis) | MIC (Cryptococcus neoformans) | MIC (Candida albicans) | MIC (C. glabrata) | MIC (C. krusei) | MIC (Aspergillus fumigatus) | activity against filamentous fungi (filamentous fungi) | MIC (Saccheromyces cerevisiae; 48 h) | MIC (C. guilliermondii) | ED50 (A. fumigatus) | MIC (Saccheromyces cerevisiae; [3]) | ED50 (C. albicans) | protein binding [1] | bioavailability [2] |
| --- | --- | --- | --- | --- | --- | --- | --- | --- | --- | --- | --- | --- | --- | --- | --- | --- |
| OC(Cn1cncn1)(Cn1cncn1)c1ccc(F)cc1F [Fluconazole, reference compound] | 0.39 µg/mL (≈ 1.27 µM) | > 100 µg/mL | 0.39 µg/mL (≈ 1.27 µM) | 1.56 µg/mL (≈ 5.09 µM) | 0.78 µg/mL (≈ 2.55 µM) | 12.5 µg/mL (≈ 40.8 µM) | 50 µg/mL (≈ 163 µM) | > 100 µg/mL | not active against filamentous fungi | 6.25 µg/mL (≈ 20.4 µM) | 1.56 µg/mL (≈ 5.09 µM) |  |  |  |  |  |
| C[C@@H](N1CCN(c2ccc(-n3cnn(Cc4ccc(F)cc4F)c3=O)cc2)CC1)[C@](O)(Cn1cncn1)c1ccc(F)cc1F [Example 46] | 0.048 µg/mL (≈ 0.0771 µM) | 0.09 µg/mL (≈ 0.145 µM) | 0.048 µg/mL (≈ 0.0771 µM) | 0.048 µg/mL (≈ 0.0771 µM) | 0.048 µg/mL (≈ 0.0771 µM) | 0.39 µg/mL (≈ 0.626 µM) | 0.19 µg/mL (≈ 0.305 µM) | 0.048 µg/mL (≈ 0.0771 µM) |  |  | 0.048 µg/mL (≈ 0.0771 µM) | > 45 mg/kg | 0.09 µg/mL (≈ 0.145 µM) | 56 mg/kg |  |  |
| CCC(C)n1ncn(-c2ccc(N3CCN(c4ccc(OCC5COC(Cn6cncn6)(c6ccc(Cl)cc6Cl)O5)cc4)CC3)cc2)c1=O (stereo not shown) [Itraconazole, reference compound] | 0.09 µg/mL (≈ 0.128 µM) | 0.39 µg/mL (≈ 0.553 µM) | 0.09 µg/mL (≈ 0.128 µM) | 0.39 µg/mL (≈ 0.553 µM) | 0.09 µg/mL (≈ 0.128 µM) | 0.19 µg/mL (≈ 0.269 µM) | 0.39 µg/mL (≈ 0.553 µM) | 0.19 µg/mL (≈ 0.269 µM) | active against filamentous fungi |  | 0.19 µg/mL (≈ 0.269 µM) |  | 0.39 µg/mL (≈ 0.553 µM) |  | high protein binding | less bioavailability |
| CC(O)Cn1ncn(-c2ccc(N3CCN([C@H](C)[C@](O)(Cn4cncn4)c4ccc(F)cc4F)CC3)cc2)c1=O (stereo partly drawn) [Example 42, (2R,3R)-2-(2,4-Difluorophenyl)-3-[4-{4-[2-(2-hydroxypropyl)-2H-1,2,4-triazol-3-one-4-yl]phenyl}piperazin-1-yl]-1-(1H-1,2,4-triazol-1-yl)butan-2-ol] | 0.048 µg/mL (≈ 0.0865 µM) | 3.12 µg/mL (≈ 5.63 µM) | 0.09 µg/mL (≈ 0.162 µM) | 0.19 µg/mL (≈ 0.343 µM) | 0.09 µg/mL (≈ 0.162 µM) | 12.5 µg/mL (≈ 22.5 µM) | 1.56 µg/mL (≈ 2.81 µM) | 0.39 µg/mL (≈ 0.703 µM) |  |  | 0.09 µg/mL (≈ 0.162 µM) | 71.1 mg/kg | 0.39 µg/mL (≈ 0.703 µM) | > 90 mg/kg |  |  |
| C[C@@H](N1CCN(c2ccc(-n3cnn(Cc4ccc(C(F)(F)F)cc4)c3=O)cc2)CC1)[C@](O)(Cn1cncn1)c1ccc(F)cc1F [Example 43] | 0.048 µg/mL (≈ 0.0733 µM) | 0.19 µg/mL (≈ 0.29 µM) | 0.048 µg/mL (≈ 0.0733 µM) | 0.048 µg/mL (≈ 0.0733 µM) | 0.048 µg/mL (≈ 0.0733 µM) | 0.78 µg/mL (≈ 1.19 µM) | 0.09 µg/mL (≈ 0.137 µM) | 0.19 µg/mL (≈ 0.29 µM) |  |  | 0.09 µg/mL (≈ 0.137 µM) | 42.3 mg/kg | 0.09 µg/mL (≈ 0.137 µM) | 1.57 mg/kg |  |  |
| CC(C)n1ncn(-c2ccc(N3CCN([C@H](C)[C@](O)(Cn4cncn4)c4ccc(F)cc4F)CC3)cc2)c1=O [Example 41, (2R,3R)-2-(2,4-Difluorophenyl)-3-[4-{4-[2-(2-propyl)-2H-1,2,4-triazol-3-one-4-yl]phenyl}piperazin-1-yl]-1-(1H-1,2,4-triazol-1-yl)butan-2-ol] | 0.48 µg/mL (≈ 0.891 µM) | 3.12 µg/mL (≈ 5.79 µM) | 0.09 µg/mL (≈ 0.167 µM) | 0.48 µg/mL (≈ 0.891 µM) | 0.09 µg/mL (≈ 0.167 µM) | 0.78 µg/mL (≈ 1.45 µM) | 1.56 µg/mL (≈ 2.9 µM) | 0.78 µg/mL (≈ 1.45 µM) |  |  | 0.048 µg/mL (≈ 0.0891 µM) | 89.3 mg/kg | 0.19 µg/mL (≈ 0.353 µM) | 8.01 mg/kg |  |  |
| C[C@@H](N1CCN(c2ccc(-n3cnn(CC(F)(F)C(F)F)c3=O)cc2)CC1)[C@](O)(Cn1cncn1)c1ccc(F)cc1F [Example 44] | 0.048 µg/mL (≈ 0.0786 µM) | 0.19 µg/mL (≈ 0.311 µM) | 0.048 µg/mL (≈ 0.0786 µM) | 0.048 µg/mL (≈ 0.0786 µM) | 0.048 µg/mL (≈ 0.0786 µM) | 1.56 µg/mL (≈ 2.56 µM) | 0.09 µg/mL (≈ 0.147 µM) | 0.048 µg/mL (≈ 0.0786 µM) |  |  | 0.048 µg/mL (≈ 0.0786 µM) |  | 0.048 µg/mL (≈ 0.0786 µM) |  |  |  |
| CCC(CC)n1ncn(-c2ccc(N3CCN([C@H](C)[C@](O)(Cn4cncn4)c4ccc(F)cc4F)CC3)cc2)c1=O [Example 36] | 0.048 µg/mL (≈ 0.0847 µM) | 0.78 µg/mL (≈ 1.38 µM) | 0.09 µg/mL (≈ 0.159 µM) | 0.048 µg/mL (≈ 0.0847 µM) | 0.09 µg/mL (≈ 0.159 µM) | 0.09 µg/mL (≈ 0.159 µM) | 0.09 µg/mL (≈ 0.159 µM) | 0.39 µg/mL (≈ 0.688 µM) |  |  | 0.048 µg/mL (≈ 0.0847 µM) | > 45 mg/kg | 0.19 µg/mL (≈ 0.335 µM) | 8.01 mg/kg |  |  |
| CCC(C)n1ncn(-c2ccc(N3CCN([C@H](C)[C@](O)(Cn4cncn4)c4ccc(F)cc4F)CC3)cc2)c1=O (stereo partly drawn) [Example 40, (2R,3R)-3-[4-{4-[2-(2-Butyl)-2H-1,2,4-triazol-3-one-4-yl]phenyl}piperazin-1-yl]2-(2,4-difluorophenyl)-1-(1H-1,2,4-triazol-1-yl)butan-2-ol] | 0.048 µg/mL (≈ 0.0869 µM) | 0.78 µg/mL (≈ 1.41 µM) | 0.048 µg/mL (≈ 0.0869 µM) | 0.48 µg/mL (≈ 0.869 µM) | 0.09 µg/mL (≈ 0.163 µM) | 0.39 µg/mL (≈ 0.706 µM) | 0.19 µg/mL (≈ 0.344 µM) | 0.39 µg/mL (≈ 0.706 µM) |  |  | 0.048 µg/mL (≈ 0.0869 µM) | 67 mg/kg | 0.09 µg/mL (≈ 0.163 µM) | 4.68 mg/kg |  |  |
